Results: patent US7863453B2, “Tartrate salt of isofagomine and methods of use” (Amicus Therapeutics, Inc., priority 2006, dated 2011)
Where “and” joins values, the source holds several entries; their conditions need not be identical. Identical values can stand only once. Counter-ions that a name gives are not always drawn. Like-named read-outs stand apart in the source and are kept apart here.

Tests used:
mutant GCase = experiment: Ex vivo response study, GCase levels in macrophages derived from Gaucher patients; format: cell-based, human
Protocol: The intracellular enhancement activity of isofagomine L-(+)-tartrate was investigated with fibroblasts established from Gaucher patients. To evaluate the effects of IFG on mutant GCase levels, an ex vivo response study with macrophages and EBV-transformed lymphoblasts derived from peripheral leukocytes of 40 patients was conducted.
The study included 21 males with type I Gaucher disease, 1 person with type III Gaucher disease, and 18 females with type I Gaucher disease. Patients ranged in age from 7 to 83 years, and 38 of 40 patients were on enzyme replacement therapy (ERT).

[1] = molecular target: T1, recombinant human acid β-glucosidase (GCase) (Homo sapiens, UniProt P04062); conditions: background statement; cited from earlier work
T1 sequence (P04062 40-536): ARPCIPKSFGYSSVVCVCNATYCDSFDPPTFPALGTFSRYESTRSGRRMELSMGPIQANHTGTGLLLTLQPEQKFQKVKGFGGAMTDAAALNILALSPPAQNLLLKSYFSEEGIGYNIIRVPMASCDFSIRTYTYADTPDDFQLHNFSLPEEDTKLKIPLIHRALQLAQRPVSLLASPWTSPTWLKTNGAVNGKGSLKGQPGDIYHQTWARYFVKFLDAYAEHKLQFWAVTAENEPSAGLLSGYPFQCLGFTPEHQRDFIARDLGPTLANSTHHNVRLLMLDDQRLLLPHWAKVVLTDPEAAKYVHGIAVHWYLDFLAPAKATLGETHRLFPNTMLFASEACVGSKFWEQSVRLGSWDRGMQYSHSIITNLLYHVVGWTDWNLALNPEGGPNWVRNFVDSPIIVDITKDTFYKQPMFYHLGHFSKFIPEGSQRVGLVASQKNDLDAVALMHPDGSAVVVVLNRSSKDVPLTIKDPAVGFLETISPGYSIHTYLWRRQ

[2] = Phase I multiple ascending dose study, pharmacokinetics; format: in vivo, human; conditions: after 7 days of oral administration
Protocol: (§1) Isofagomine tartrate is a pharmacological chaperone in development for the treatment of the lysosomal storage disorder Gaucher disease. Using cell-based and animal models we have shown that isofagomine increases cellular levels of glucocerebrosidase (GCase), the enzyme deficient in Gaucher disease. Randomized double-blind Phase I clinical studies were performed in 72 healthy volunteers, (39 male, 33 female). Isofagomine tartrate was orally administered as an aqueous solution. In a first-in-human single ascending dose study, doses of 8, 25, 75, 150 (two cohorts), and 300 mg were administered (6 active, 2 placebo in each cohort). In a multiple ascending dose study, doses of 25, 75, and 225 mg were administered daily for seven days (6 active, 2 placebo in each cohort).
(§2) Mean plasma levels peaked at 3.4 hr. […] (SEM: 2 hr.).

[3] = animals, background statement; cited from earlier work
[4] = Phase I single ascending dose study, pharmacokinetics; format: in vivo, human
Protocol: as §1, §2

[5] = Powder characteristics (density, flowability); format: physicochemical
From the text: Meanwhile, isofagomine tartrate according to the present invention has good powder characteristics, e.g., crystal size, density, and flowability, that are suitable for a pharmaceutical manufacturing process. Tables 2 and 3 summarize powder characteristics of an isofagomine tartrate sample prepared according to the present invention. […] Most batches provided more than 98%, or at minimum 90%, of isofagomine tartrate with a particle size of about 1200 μm or less.

[6] = Moisture uptake studies (saturated salt solutions); format: physicochemical; conditions: for Weight gain (%): single samples; for Average weight gain (%): average of 3 samples
From the text: The moisture uptake test results of six different isofagomine tartrate samples prepared according to present invention are summarized in Tables 4 and 5.

[7] = Phase I clinical studies in healthy volunteers, safety; format: in vivo, human
Protocol: as §1

GCase = molecular target: T2, GCase (Homo sapiens, UniProt P04062); experiment: Phase I multiple-dose study, GCase activity in isolated white blood cells; format: in vivo
T2 construct: endogenous in cells; host or cells: isolated white blood cells of healthy volunteers dosed orally
T2 sequence (P04062 40-536): T1 sequence (P04062 40-536)
Protocol: as §1
In the multiple-dose study, GCase activity in isolated white blood cells was measured at days 1, 3, 5 and 7 during administration of isofagomine tartrate, and at days 9, 14 and 21 during the post-treatment washout period. […] The increase in enzyme level was dose-related, reaching approximately 3.5-fold above baseline levels.

For OC[C@H]1CNC[C@@H](O)[C@@H]1O [isofagomine, (3R,4R,5R)-5-(hydroxymethyl)-3,4-piperidinediol], the “effect on GCase levels in cells from patients with different genotypes” value (mutant GCase; N370S/N370S, N370S/L444P, N370S/84insG, N370S/R163X, N370S/Y212H, L444P/del 136T, L444P/F216Y, L444P/L174F, G202R/R463C, K79N/complex B exon 9/10) is given as “significantly increased GCase levels”, the “concentration at maximum enhancement of GCase” value (mutant GCase; macrophages) is given as “about 30 μM” and the “inhibition of GCase” value [1] is given as “potent inhibitor”. The accumulation [2] was “no unexpected accumulation” and the blood-brain barrier crossing [3] was “cross the blood-brain barrier”.
In the case of OC[C@H]1CNC[C@@H](O)[C@@H]1O [isofagomine tartrate, Isofagomine tartrate], the Tmax ([4]; both sexes, human, plasma, single-dose study, oral, SEM 0.6 hr, read-out: time at which mean plasma levels peaked (Tmax)) is reported as 3.4 h, the half-life ([4]; both sexes, human, plasma, single-dose study, oral, SEM 2 hr, read-out: plasma elimination half-life (converted)) is reported as 14 h and the “systemic exposure via the oral route” value ([4]; healthy volunteers) is reported as “good systemic exposure”. The “plasma AUC and Cmax versus dose” value ([4]; single-dose study, 8-300 mg) was “linearly correlated with administered dose”, the “Bulk Density” value [5] was 0.44 g/mL and the “Carr Index” value [5] was 15%. The “Tap Density” value [5] was 0.52 g/mL, the “Bulk Density” value ([5]; listed as Isofagomine tartrate) was “around 0.44 g/ml” and the “Carr Index” value ([5]; listed as Isofagomine tartrate) was 15%. The “increase in GCase levels (average)” value (mutant GCase; macrophages from Gaucher patients, 32 of 34 responding, treated 5 days, dose-dependent) was 2.8 fold, the “pharmacokinetic behavior versus dose” value [2] was “linear with dose” and the hygroscopicity [6] was “not hygroscopic”. For the same compound, the “Weight gain (%)” value ([6]; NaBr saturated solution, 24 hours, RH 59%, 20.5 °C) was 0.06% and 0.00% and 0.05%, the “Average weight gain (%)” value ([6]; NaBr saturated solution, 24 hours, RH 59%) was 0.04% and the “Weight gain (%)” value ([6]; NaBr saturated solution, 48 hours, RH 59%, 20.8 °C) was 0.04% and 0.02% and 0.10%. For the same compound, the “Average weight gain (%)” value ([6]; NaBr saturated solution, 48 hours, RH 59%) was 0.05%, the “Weight gain (%)” value ([6]; NaBr saturated solution, 8 days, RH 59%, 20.2 °C) was 0.06% and 0.07% and 0.10% and the “Average weight gain (%)” value ([6]; NaBr saturated solution, 8 days, RH 59%) was 0.08%. For the same compound, the “Weight gain (%)” value ([6]; NaCl saturated solution, 24 hours, RH 72%, 20.5 °C) was 0.02% and 0.00% and 0.08%, the “Average weight gain (%)” value ([6]; NaCl saturated solution, 24 hours, RH 72%) was 0.04% and the “Weight gain (%)” value ([6]; NaCl saturated solution, 48 hours, RH 71%, 20.8 °C) was 0.05% and 0.00% and 0.8%. The “Average weight gain (%)” value ([6]; NaCl saturated solution, 48 hours, RH 71%) was 0.05%, the “Weight gain (%)” value ([6]; NaCl saturated solution, 8 days, RH 72%, 20.2 °C) was 0.10% and 0.00% and 0.15% and the “Average weight gain (%)” value ([6]; NaCl saturated solution, 8 days, RH 72%) was 0.08%. The moisture uptake ([6]; after exposure to 75% RH for 8 days) was “about 0.08%”, the serious adverse events ([7]; both studies) was “No serious adverse events occurred” and the treatment-emergent adverse events ([7]; both studies) was “mostly mild”. The tolerability ([7]; healthy volunteers, oral aqueous solution, single 8-300 mg and 25-225 mg daily for seven days) was “generally well tolerated at all doses”, the “increase in GCase level above baseline” value (GCase; isolated white blood cells, healthy volunteers, 25-225 mg daily for seven days, dose-related, maximum reached) was “approximately 3.5 fold” and the “GCase levels after removal of the drug” value (GCase; post-treatment washout period) was “return to near baseline levels by day 21”.
